{"source": "patent US6706663B2", "about": "“Herbicidal 3-heterocyclic substituted benzisothiazole and benzisoxazole compounds” (Wyeth, priority 2000, dated 2004)", "key": {"ORYSAT (Rice, Tebonnet) [1]": {"system": "ORYSAT (Rice, Tebonnet)", "test": "Preemergence herbicidal evaluation", "assay_type": "in vivo, Oryza sativa, (L.) Tebonnet", "conditions": "preemergence, rated 4-5 weeks after treatment"}, "[2]": {"system": "TRZAWR (Wheat, Winter, cv Riband)", "test": "Preemergence herbicidal evaluation", "assay_type": "in vivo, Triticum aestivum", "conditions": "preemergence, rated 4-5 weeks after treatment", "summary_of_the_method": "(§1)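 Rating 0–9, visual, vs control; 4–5 wk after spraying seeded cups with compound in aq. acetone; conventional greenhouse care.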"}, "[3]": {"system": "ABUTH (Abutilon theophrasti)", "test": "Preemergence herbicidal evaluation", "assay_type": "in vivo, Medic.", "conditions": "preemergence, rated 4-5 weeks after treatment"}, "[4]": {"system": "SAGPY (Sagittaria pygmaea)", "test": "Flooded paddy, preemergence weed control", "assay_type": "in vivo, L.", "conditions": "rated 3-4 weeks after treatment, 0-9 rating scale", "summary_of_the_method": "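Preemergence, flooded: propagules planted at 0.5 cm depth in silt loam, water level maintained at 1.5 to 3 cm over soil, containers kept on greenhouse benches. Activity scored 0-9 by eye relative to a control plant.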"}, "[5]": {"system": "IPOHE (Ipomoea hederacea)", "test": "Preemergence herbicidal evaluation", "assay_type": "in vivo, (L.) Jacq.", "conditions": "preemergence, rated 4-5 weeks after treatment"}, "[6]": {"system": "ECHCG (Echinochloa crus-galli)", "test": "Postemergence herbicidal evaluation", "assay_type": "in vivo, (L.) Beau", "summary_of_the_method": "(§2)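 Visual 0–9 injury scores versus control plants, covering stand, vigour, malformation, size, chlorosis and general appearance, taken four to five weeks post-spray and averaged over replicate tests. Plants were sprayed at roughly two weeks old and held on greenhouse benches.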"}, "[7]": {"system": "ABUTH (Abutilon theophrasti)", "test": "Postemergence herbicidal evaluation", "assay_type": "in vivo, Medic.", "summary_of_the_method": "as §2"}, "ZEAMX (Corn, Field)": {"system": "ZEAMX (Corn, Field)", "test": "Postemergence herbicidal evaluation", "assay_type": "in vivo, Zea mays, L.", "summary_of_the_method": "as §2"}, "[8]": {"system": "GLXMAW (Soybean, Williams)", "test": "Postemergence herbicidal evaluation", "assay_type": "in vivo, Glycine max, (L.) Merr. cv Williams", "summary_of_the_method": "as §2"}, "ORYSAT (Rice, Tebonnet) [9]": {"system": "ORYSAT (Rice, Tebonnet)", "test": "Flooded paddy, post-transplant rice tolerance", "assay_type": "in vivo, Oryza sativa, (L.) Tebonnet", "conditions": "flooded paddy, post-transplant rice, rated 3-4 weeks after treatment, 0-9 rating scale", "summary_of_the_method": "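Scores (0-9) reflect visual injury relative to untreated plants in flooded silt loam. Each pot held two transplanted ten-day-old seedlings under 1.5 to 3 cm standing water in the greenhouse.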"}, "GALAP (Galium aparine) [10]": {"system": "GALAP (Galium aparine)", "test": "Preemergence herbicidal evaluation", "assay_type": "in vivo", "conditions": "preemergence, rated 4-5 weeks after treatment", "summary_of_the_method": "as §1"}, "ORYSAT (Rice, Tebonnet) [11]": {"system": "ORYSAT (Rice, Tebonnet)", "test": "Postemergence herbicidal evaluation", "assay_type": "in vivo, Oryza sativa, (L.) Tebonnet", "summary_of_the_method": "as §2"}, "GALAP (Galium aparine) [12]": {"system": "GALAP (Galium aparine)", "test": "Postemergence herbicidal evaluation", "assay_type": "in vivo", "summary_of_the_method": "as §2"}, "[13]": {"system": "AMBEL (Ambrosia artemisifolia)", "test": "Preemergence herbicidal evaluation", "assay_type": "in vivo, L.", "conditions": "preemergence, rated 4-5 weeks after treatment", "summary_of_the_method": "as §1"}, "[14]": {"system": "CASOB (Cassia obtusifolia)", "test": "Preemergence herbicidal evaluation", "assay_type": "in vivo, L.", "conditions": "preemergence, rated 4-5 weeks after treatment", "summary_of_the_method": "as §1"}, "[15]": {"system": "CHEAL (Chenopodium album)", "test": "Preemergence herbicidal evaluation", "assay_type": "in vivo, L.", "conditions": "preemergence, rated 4-5 weeks after treatment", "summary_of_the_method": "as §1"}, "[16]": {"system": "AMBEL (Ambrosia artemisifolia)", "test": "Postemergence herbicidal evaluation", "assay_type": "in vivo, L.", "summary_of_the_method": "as §2"}, "[17]": {"system": "CASOB (Cassia obtusifolia)", "test": "Postemergence herbicidal evaluation", "assay_type": "in vivo, L.", "summary_of_the_method": "as §2"}, "[18]": {"system": "CHEAL (Chenopodium album)", "test": "Postemergence herbicidal evaluation", "assay_type": "in vivo, L.", "summary_of_the_method": "as §2"}}, "data": [{"smiles": "Cn1c(C(F)(F)F)cc(=O)n(-c2ccc3snc(-c4ccccn4)c3c2)c1=O", "note": "[Compound 9, 1-methyl-3-[3-(2-pyridyl)-1,2-benzisothiazol-5-yl]-6-(trifluoromethyl)uracil]", "values": [{"measurement": "ORYSAT preemergence herbicidal rating", "setting": "ORYSAT (Rice, Tebonnet) [1]; Rate 0.0620 kg/ha", "result": 4.3}, {"measurement": "ORYSAT preemergence herbicidal rating", "setting": "ORYSAT (Rice, Tebonnet) [1]; Rate 0.1250 kg/ha", "result": 6.7}, {"measurement": "ORYSAT preemergence herbicidal rating", "setting": "ORYSAT (Rice, Tebonnet) [1]; Rate 0.2500 kg/ha", "result": 8.0}, {"measurement": "TRZAWR preemergence herbicidal rating", "setting": "[2]; Rate 0.0620 kg/ha", "result": 5.5}, {"measurement": "TRZAWR preemergence herbicidal rating", "setting": "[2]; Rate 0.1250 kg/ha", "result": 7.5}, {"measurement": "TRZAWR preemergence herbicidal rating", "setting": "[2]; Rate 0.2500 kg/ha", "result": 8.5}, {"measurement": "ABUTH preemergence herbicidal rating", "setting": "[3]; Rate 0.0620 kg/ha", "result": 9.0}, {"measurement": "ABUTH preemergence herbicidal rating", "setting": "[3]; Rate 0.1250 kg/ha", "result": 9.0}, {"measurement": "ABUTH preemergence herbicidal rating", "setting": "[3]; Rate 0.2500 kg/ha", "result": 9.0}, {"measurement": "herbicidal rating, SAGPY", "setting": "[4]; rate 0.0080 kg/ha", "result": 0.0}, {"measurement": "herbicidal rating, SAGPY", "setting": "[4]; rate 0.0320 kg/ha", "result": 3.0}, {"measurement": "herbicidal rating, SAGPY", "setting": "[4]; rate 0.1250 kg/ha", "result": 9.0}, {"measurement": "IPOHE preemergence herbicidal rating", "setting": "[5]; Rate 0.0620 kg/ha", "result": 6.3}, {"measurement": "IPOHE preemergence herbicidal rating", "setting": "[5]; Rate 0.1250 kg/ha", "result": 8.3}, {"measurement": "IPOHE preemergence herbicidal rating", "setting": "[5]; Rate 0.2500 kg/ha", "result": 9.0}, {"measurement": "Postemergence herbicidal rating, ECHCG", "setting": "[6]; rate 0.0320 kg/ha", "result": 1.0}, {"measurement": "Postemergence herbicidal rating, ECHCG", "setting": "[6]; rate 0.0620 kg/ha", "result": 2.0}, {"measurement": "Postemergence herbicidal rating, ECHCG", "setting": "[6]; rate 0.1250 kg/ha", "result": 8.0}, {"measurement": "Postemergence herbicidal rating, ABUTH", "setting": "[7]; rate 0.0320 kg/ha", "result": 9.0}, {"measurement": "Postemergence herbicidal rating, ABUTH", "setting": "[7]; rate 0.0620 kg/ha", "result": 9.0}, {"measurement": "Postemergence herbicidal rating, ABUTH", "setting": "[7]; rate 0.1250 kg/ha", "result": 9.0}, {"measurement": "Postemergence herbicidal rating, ZEAMX", "setting": "ZEAMX (Corn, Field); rate 0.0320 kg/ha", "result": 5.3}, {"measurement": "Postemergence herbicidal rating, ZEAMX", "setting": "ZEAMX (Corn, Field); rate 0.0620 kg/ha", "result": 5.8}, {"measurement": "Postemergence herbicidal rating, ZEAMX", "setting": "ZEAMX (Corn, Field); rate 0.1250 kg/ha", "result": 5.5}, {"measurement": "Postemergence herbicidal rating, GLXMAW", "setting": "[8]; rate 0.0320 kg/ha", "result": 8.3}, {"measurement": "Postemergence herbicidal rating, GLXMAW", "setting": "[8]; rate 0.0620 kg/ha", "result": 8.3}, {"measurement": "Postemergence herbicidal rating, GLXMAW", "setting": "[8]; rate 0.1250 kg/ha", "result": 9.0}, {"measurement": "herbicidal rating, ORYSAT (rice tolerance)", "setting": "ORYSAT (Rice, Tebonnet) [9]; rate 0.0080 kg/ha", "result": 4.0}, {"measurement": "herbicidal rating, ORYSAT (rice tolerance)", "setting": "ORYSAT (Rice, Tebonnet) [9]; rate 0.0320 kg/ha", "result": 3.0}, {"measurement": "herbicidal rating, ORYSAT (rice tolerance)", "setting": "ORYSAT (Rice, Tebonnet) [9]; rate 0.1250 kg/ha", "result": 6.0}, {"measurement": "GALAP preemergence herbicidal rating", "setting": "GALAP (Galium aparine) [10]; Rate 0.0620 kg/ha", "result": 1.5}, {"measurement": "GALAP preemergence herbicidal rating", "setting": "GALAP (Galium aparine) [10]; Rate 0.1250 kg/ha", "result": 3.0}, {"measurement": "GALAP preemergence herbicidal rating", "setting": "GALAP (Galium aparine) [10]; Rate 0.2500 kg/ha", "result": 7.0}, {"measurement": "Postemergence herbicidal rating, ORYSAT", "setting": "ORYSAT (Rice, Tebonnet) [11]; rate 0.0320 kg/ha", "result": 3.8}, {"measurement": "Postemergence herbicidal rating, ORYSAT", "setting": "ORYSAT (Rice, Tebonnet) [11]; rate 0.0620 kg/ha", "result": 4.3}, {"measurement": "Postemergence herbicidal rating, ORYSAT", "setting": "ORYSAT (Rice, Tebonnet) [11]; rate 0.1250 kg/ha", "result": 3.0}, {"measurement": "Postemergence herbicidal rating, GALAP", "setting": "GALAP (Galium aparine) [12]; rate 0.0320 kg/ha", "result": 7.0}, {"measurement": "Postemergence herbicidal rating, GALAP", "setting": "GALAP (Galium aparine) [12]; rate 0.0620 kg/ha", "result": 7.0}, {"measurement": "Postemergence herbicidal rating, GALAP", "setting": "GALAP (Galium aparine) [12]; rate 0.1250 kg/ha", "result": 5.0}, {"measurement": "AMBEL preemergence herbicidal rating", "setting": "[13]; Rate 0.0620 kg/ha", "result": 6.3}, {"measurement": "AMBEL preemergence herbicidal rating", "setting": "[13]; Rate 0.1250 kg/ha", "result": 9.0}, {"measurement": "AMBEL preemergence herbicidal rating", "setting": "[13]; Rate 0.2500 kg/ha", "result": 9.0}, {"measurement": "CASOB preemergence herbicidal rating", "setting": "[14]; Rate 0.0620 kg/ha", "result": 1.0}, {"measurement": "CASOB preemergence herbicidal rating", "setting": "[14]; Rate 0.1250 kg/ha", "result": 2.7}, {"measurement": "CASOB preemergence herbicidal rating", "setting": "[14]; Rate 0.2500 kg/ha", "result": 6.3}, {"measurement": "CHEAL preemergence herbicidal rating", "setting": "[15]; Rate 0.0620 kg/ha", "result": 9.0}, {"measurement": "CHEAL preemergence herbicidal rating", "setting": "[15]; Rate 0.1250 kg/ha", "result": 9.0}, {"measurement": "CHEAL preemergence herbicidal rating", "setting": "[15]; Rate 0.2500 kg/ha", "result": 9.0}, {"measurement": "Postemergence herbicidal rating, AMBEL", "setting": "[16]; rate 0.0320 kg/ha", "result": 9.0}, {"measurement": "Postemergence herbicidal rating, AMBEL", "setting": "[16]; rate 0.0620 kg/ha", "result": 9.0}, {"measurement": "Postemergence herbicidal rating, AMBEL", "setting": "[16]; rate 0.1250 kg/ha", "result": 9.0}, {"measurement": "Postemergence herbicidal rating, CASOB", "setting": "[17]; rate 0.0320 kg/ha", "result": 6.5}, {"measurement": "Postemergence herbicidal rating, CASOB", "setting": "[17]; rate 0.0620 kg/ha", "result": 8.0}, {"measurement": "Postemergence herbicidal rating, CASOB", "setting": "[17]; rate 0.1250 kg/ha", "result": 9.0}, {"measurement": "Postemergence herbicidal rating, CHEAL", "setting": "[18]; rate 0.0320 kg/ha", "result": 9.0}, {"measurement": "Postemergence herbicidal rating, CHEAL", "setting": "[18]; rate 0.0620 kg/ha", "result": 9.0}, {"measurement": "Postemergence herbicidal rating, CHEAL", "setting": "[18]; rate 0.1250 kg/ha", "result": 9.0}]}]}
